Tests used:
[1] = target: T1, human KEAP1 (N-term, residues 321-609) (Homo sapiens, UniProt Q14145); experiment: KEAP1 Kelch Fluorescence Polarization (FP) Assay; type: binding; settings: inhibition of Kelch domain-NRF2 interaction; 2 nM FITC-labelled NRF2 peptide, 25 nM KEAP1, 1 h room temperature; compounds below 10 nM cannot be differentiated
T1 construct: human KEAP1 (N-term, residues 321-609)
Experimental: KEAP1 Kelch Fluorescence Polarization (FP) Assay Method
Inhibition of the Kelch domain-NRF2 interaction was determined using a fluorescence polarization-based competition assay in a black 384-well microplate. Compounds were tested at a starting concentration of 10 μM serially diluted 1:3 to generate a 12-point dose response curve on the Biomek FX robot. Each well contained 2 nM FITC-labelled NRF2 peptide (FITC-LDEETGEFL-NH2) and 25 nM human KEAP1 (N-term, residues 321-609) enzyme in a final volume of 20 μL of assay buffer (50 mM Tris-HCl pH 8.0, 100 mM NaCl, 5 mM MgCl2, 0.005% Tween-20, 0.005% BSA, 0.5% DMSO) in the presence of varying concentrations of test compound. Unlabelled peptide (LDEETGEFL-NH2) at 50 μM (negative control) and 0.5% DMSO (positive control) was used to determine the assay window.
After 1 h at room temperature, fluorescence polarization (excitation 470 nm/emission 530 nm) was measured using an Envision plate reader. IC50 values were determined by fitting the data to a four parameter logistic fit using XLfit or XE Runner within ActivityBase. The assay limit is such that compounds below 10 nM cannot be differentiated.

[2] = test system: NRF2 mediated gene NAD(P)H:quinone acceptor oxidoreductase 1 (NQO1) in BEAS-2B cells; experiment: Beas2B NQO1 mRNA Cell Based Assay; parameters: species or system human; settings: Homo sapiens; BEAS-2B cells, compound for 24 h; increase in NQO1 mRNA compared to vehicle (0.1% DMSO) control; read-out: EC50
Experimental: Beas2B NQO1 mRNA Cell Based Assay
The up regulation of the NRF2 mediated gene NAD(P)H:quinone acceptor oxidoreductase 1 (NQO1) was measured using the following assay method: BEAS-2B cells (ATCC CRL-9609) were plated in 96-well clear plates at 20,000 cells/well in 75 μL of cell culture media and incubated overnight (37° C., 5% CO2). On day 2, 25 μL of compound or controls were added to the cells for 24 h. On day 3, the medium was aspirated from the plate and the Cells-to-CT™ 1-Step TaqMan® Kit (Ambion A25603) was used to perform expression analysis directly from cultured cells without RNA purification according to the manufacturer's instructions.
Briefly, cells were washed with ice cold PBS and 22.5 μL of room-temperature DNase/Lysis solution was added to the cells and incubated at room temperature for 5 minutes. To stop the reaction, 2.25 μL of stop solution was added to the cell lysate. The samples were diluted 1:5 using nuclease free water and 2.5 μL transferred into the PCR plate. Real-time PCR was performed using the C-1000 Thermal Cycler (Bio-Rad) using human beta actin as the internal control. The cDNA was amplified with a specific primer for NQO1 using the 1-step RT-PCR master mix (Ambion Cells-to-CTTM 1-Step TaqMan® Kit A25603). The primers/probes sets that were used for amplification of cDNA were obtained from TaqMan Gene Expression Assays (Applied Biosystems). The comparative CT (ΔΔCT) relative quantification method was used to calculate the relative mRNA level of the target gene NQO1 as described in the Applied Biosystems Chemistry Guide. The data are expressed as an increase in target gene mRNA compared to vehicle (0.1% DMSO) control and the EC50 values were determined by fitting the data to a four parameter logistic fit using XLfit or XE Runner within ActivityBase.

T1 sequence (Q14145 321-609): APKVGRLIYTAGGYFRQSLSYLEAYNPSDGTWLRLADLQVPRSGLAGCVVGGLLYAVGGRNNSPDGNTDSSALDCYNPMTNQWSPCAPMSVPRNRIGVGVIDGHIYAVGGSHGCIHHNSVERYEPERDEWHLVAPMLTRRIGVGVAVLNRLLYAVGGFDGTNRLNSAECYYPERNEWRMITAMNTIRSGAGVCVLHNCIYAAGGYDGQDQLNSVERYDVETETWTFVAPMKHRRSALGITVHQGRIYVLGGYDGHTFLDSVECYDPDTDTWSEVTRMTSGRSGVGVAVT

Row | Structure (SMILES) | IC50 [1] [µM] | EC50 [2] [µM]
1 | CCNC(=O)[C@H]1CCCC[C@H]1C(=O)N1CCc2c(Cl)ccc(OCc3noc4ccccc34)c2[C@H]1CN1CCCC1=O [Example 53, (1S,2R)-2-((S)-8-(benzo[d]isoxazol-3-ylmethoxy)-5-chloro-1-((2-oxopyrrolidin-1-yl)methyl)-1,2,3,4-tetrahydroisoquinoline-2-carbonyl)-N-ethylcyclohexane-1-carboxamide] | 0.047 | 0.189
2 | CNC(=O)[C@H]1CCCC[C@H]1C(=O)N1CCc2c(Cl)ccc(OCc3ccccn3)c2[C@H]1CN1CCCC1=O [Example 63, (1S,2R)-2-((S)-5-chloro-1-((2-oxopyrrolidin-1-yl)methyl)-8-(pyridin-2-ylmethoxy)-1,2,3,4-tetrahydroisoquinoline-2-carbonyl)-N-methylcyclohexane-1-carboxamide] | 0.34 | > 10
3 | CNC(=O)[C@H]1CCCC[C@H]1C(=O)N1CCc2c(Cl)ccc(OCc3cnccn3)c2[C@H]1CN1CCCC1=O [Example 62, (1S,2R)-2-((S)-5-chloro-1-((2-oxopyrrolidin-1-yl)methyl)-8-(pyrazin-2-ylmethoxy)-1,2,3,4-tetrahydroisoquinoline-2-carbonyl)-N-methylcyclohexane-1-carboxamide] | 0.082 | 1.46
4 | CNC(=O)[C@H]1CCCC[C@H]1C(=O)N1CCc2c(Cl)ccc(OCc3noc(C(C)C)n3)c2[C@H]1CN1CCCC1=O [Example 57, (1S,2R)-2-((S)-5-chloro-8-((5-isopropyl-1,2,4-oxadiazol-3-yl)methoxy)-1-((2-oxopyrrolidin-1-yl)methyl)-1,2,3,4-tetrahydroisoquinoline-2-carbonyl)-N-methylcyclohexane-1-carboxamide] | 0.112 | 4
5 | CNC(=O)[C@H]1CCCC[C@H]1C(=O)N1CCc2c(Cl)ccc(OCc3ccc4ncn(C)c4n3)c2[C@H]1CN1CCCC1=O [Example 80, (1S,2R)-2-((S)-5-chloro-8-((3-methyl-3H-imidazo[4,5-b]pyridin-5-yl)methoxy)-1-((2-oxopyrrolidin-1-yl)methyl)-1,2,3,4-tetrahydroisoquinoline-2-carbonyl)-N-methylcyclohexane-1-carboxamide] | 0.371 | 2.25
6 | CNC(=O)[C@H]1CCCC[C@H]1C(=O)N1CCc2cccc(O[C@H]3CCN(C(=O)c4cccnc4)C3)c2[C@H]1CN1C(=O)c2ccccc2C1=O [Example 15, (1S,2R)-2-((S)-1-((1,3-dioxoisoindolin-2-yl)methyl)-8-(((S)-1-nicotinoylpyrrolidin-3-yl)oxy)-1,2,3,4-tetrahydroisoquinoline-2-carbonyl)-N-methylcyclohexane-1-carboxamide] | 0.093 | 
7 | CNC(=O)[C@H]1CCCC[C@H]1C(=O)N1CCc2cccc(OCCNC(=O)c3noc4ccccc34)c2[C@H]1CN1C(=O)c2ccccc2C1=O [Example 12, N-(2-(((S)-1-((1,3-dioxoisoindolin-2-yl)methyl)-2-((1R,2S)-2-(methylcarbamoyl)cyclo-hexane-1-carbonyl)-1,2,3,4-tetrahydroisoquinolin-8-yl)oxy)ethyl)benzo[d] isoxazole-3-carboxamide] | 0.056 | 
8 | CNC(=O)[C@H]1CCCC[C@H]1C(=O)N1CCc2cccc(OCCCC(=O)O)c2[C@H]1CN1C(=O)c2ccccc2C1=O [Example 46, 4-(((S)-1-((1,3-dioxoisoindolin-2-yl)methyl)-24(1 R,2S)-2-(methylcarbamoyncyclohexane-1-carbonyl)-1,2,3,4-tetrahydroisoquinolin-8-yl)oxy)butanoic acid] | 0.083 | 
9 | CNC(=O)CCC(=O)N1CCc2cccc(O[C@H]3CCN(C(=O)c4cncs4)C3)c2[C@H]1CN1C(=O)c2ccccc2C1=O [Example 41, 4-((S)-1-((1,3-dioxoisoindolin-2-yl)methyl)-8-(((S)-1-(thiazole-5-carbonyl)pyrrolidin-3-yl)oxy)-3,4-dihydroisoquinolin-2(1H)-yl)-N-methyl-4-oxobutanamide] | 0.788 | 

These reach a lower IC50 [1]. Values come first.

Row | IC50 [1] [µM] | Structure (SMILES) | EC50 [2] [µM]
10 | 0.043 | CNC(=O)N1CCCC[C@H]1C(=O)N1CCc2cccc(O[C@H]3CCN(C(=O)c4cncs4)C3)c2[C@H]1CN1C(=O)c2ccccc2C1=O [Example 28, (S)-2-((S)-1-((1,3-dioxoisoindolin-2-yl)methyl)-8-(((S)-1-(thiazole-5-carbonyl)pyrrolidin-3-yl)oxy)-1,2,3,4-tetrahydroisoquinoline-2-carbonyl)-N-methylpiperidine-1-carboxamide] | 
11 | 0.037 | CNC(=O)[C@H]1CCCC[C@H]1C(=O)N1CCc2cccc(OCCNC(=O)c3nc4ccccc4o3)c2[C@H]1CN1C(=O)c2ccccc2C1=O [Example 11, N-(2-(((S)-1-((1,3-dioxoisoindolin-2-yl)methyl)-2-((1R,2S)-2-(methylcarbamoyl)cyclo-hexane-1-carbonyl)-1,2,3,4-tetrahydroisoquinolin-8-yl)oxy)ethyl)benzo[d] oxazole-2-carboxamide] | 
12 | 0.023 | CNC(=O)[C@@]1(C)CCC[C@H]1C(=O)N1CCc2c(Cl)ccc(OCc3nnn(C)c3C(F)F)c2[C@H]1CN1CCC(C)C1=O (single isomer, unassigned) [Example 95] | 0.565
13 | 0.012 | CNC(=O)[C@@]1(C)CCCC[C@H]1C(=O)N1CCc2c(Cl)ccc(OCc3noc4ccccc34)c2[C@H]1CN1CCCC1=O [Example 83, (1S,2R)-2-((S)-8-(benzo[d]isoxazol-3-ylmethoxy)-5-chloro-1-((2-oxopyrrolidin-1-yl)methyl)-1,2,3,4-tetrahydroisoquinoline-2-carbonyl)-N,1-dimethylcyclohexane-1-carboxamide] | 0.473
14 | 0.0109 | CNC(=O)[C@@]1(C)CCCC[C@H]1C(=O)N1CCc2c(Cl)ccc(OCc3nnn(C)c3C3CC3)c2[C@H]1CN1C[C@H](C)CC1=O [Example 113, (1S,2R)-2-((S)-5-chloro-8-((5-cyclopropyl-1-methyl-1H-1,2,3-triazol-4-yl)methoxy)-1-(((R)-4-methyl-2-oxopyrrolidin-1-yl)methyl)-1,2,3,4-tetrahydroisoquinoline-2-carbonyl)-N,1-dimethylcyclohexane-1-carboxamide] | 0.299
15 | 0.0089 | CNC(=O)[C@@]1(C)CCCC[C@H]1C(=O)N1CCc2c(Cl)ccc(OCc3nnn(C)c3C(F)(F)F)c2[C@H]1CN1CC2(CC2)CC1=O [Example 97, (1S,2R)-2-((S)-5-chloro-8-((1-methyl-5-(trifluoromethyl)-1H-1,2,3-triazol-4-yl)methoxy)-1-((6-oxo-5-azaspiro[2.4]heptan-5-yl)methyl)-1,2,3,4-tetrahydroisoquinoline-2-carbonyl)-N,1-dimethylcyclohexane-1-carboxamide] | 0.114
16 | 0.0075 | CNC(=O)[C@@]1(C)CCCC[C@H]1C(=O)N1CCc2c(Cl)cc(F)c(OCc3nnn(C)c3C(F)F)c2[C@H]1CN1CCCC1=O [Example 109, (1S,2R)-2-((S)-5-chloro-8-((5-(difluoromethyl)-1-methyl-1H-1,2,3-triazol-4-yl)methoxy)-7-fluoro-1-((2-oxopyrrolidin-1-yl)methyl)-1,2,3,4-tetrahydroisoquinoline-2-carbonyl)-N,1-dimethylcyclohexane-1-carboxamide] | 0.14
17 | 0.0071 | CNC(=O)[C@@]1(C)CCCC[C@H]1C(=O)N1CCc2c(Cl)ccc(OCc3nnn(C)c3C3CC3)c2[C@H]1CN1CC2(CC2)CC1=O [Example 103, (1S,2R)-2-((S)-5-chloro-8-((5-cyclopropyl-1-methyl-1H-1,2,3-triazol-4-yl)methoxy)-1-((6-oxo-5-azaspiro[2.4]heptan-5-yl)methyl)-1,2,3,4-tetrahydroisoquinoline-2-carbonyl)-N,1-dimethylcyclohexane-1-carboxamide] | 0.057
